“And” between values parts separate entries of the source, which are not always exact repeats. Identical values can stand only once. Toxic doses and inconclusive results are not listed. How the source made its calls: active means survival T/C of 150% or more; inactive means T/C below 125% in these data.
Test system: CD2F1 mice, L1210 leukemia ip, survival T/C
Test: NCI In Vivo Anticancer Drug Screen. Data for tumor model L1210 Leukemia (intraperitoneal) in CD2F1 (CDF1) mice
Details: higher = longer survival
Procedure, shortened: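 In this screen, transplantable tumors were grown in mice given either the compound or its vehicle. Results were expressed as the treated measurement relative to the control measurement.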

[1] = endpoint: mean survival time, dose: 100.0 mg/kg/injection, schedule: Q01DX009 (ip), vehicle: saline with Tween-80
[2] = endpoint: mean survival time, dose: 100.0 mg/kg/injection, schedule: Q04DX003 (ip), vehicle: saline with Tween-80
[3] = endpoint: mean survival time, dose: 200.0 mg/kg/injection, schedule: Q04DX003 (ip), vehicle: saline with Tween-80
[4] = endpoint: mean survival time, dose: 400.0 mg/kg/injection, schedule: Q04DX003 (ip), vehicle: saline with Tween-80
[5] = endpoint: mean survival time, dose: 200.0 mg/kg/injection, schedule: Q01DX009 (ip), vehicle: saline with Tween-80
[6] = endpoint: mean survival time, dose: 400.0 mg/kg/injection, schedule: Q01DX009 (ip), vehicle: saline with Tween-80
[7] = endpoint: mean survival time, dose: 100.0 mg/kg/injection, schedule: Q01DX001 (ip), vehicle: saline
[8] = endpoint: mean survival time, dose: 200.0 mg/kg/injection, schedule: Q01DX001 (ip), vehicle: saline
[9] = endpoint: mean survival time, dose: 400.0 mg/kg/injection, schedule: Q01DX001 (ip), vehicle: saline
[10] = endpoint: mean survival time, dose: 100.0 mg/kg/injection, schedule: Q01DX009 (ip), vehicle: saline
[11] = endpoint: mean survival time, dose: 200.0 mg/kg/injection, schedule: Q01DX009 (ip), vehicle: saline
[12] = endpoint: mean survival time, dose: 100.0 mg/kg/injection, schedule: Q04DX003 (ip), vehicle: saline
[13] = endpoint: mean survival time, dose: 200.0 mg/kg/injection, schedule: Q04DX003 (ip), vehicle: saline
[14] = endpoint: mean survival time, dose: 400.0 mg/kg/injection, schedule: Q04DX003 (ip), vehicle: saline
[15] = endpoint: mean survival time, dose: 50.0 mg/kg/injection, schedule: Q01DX009 (ip), vehicle: saline with Tween-80

Measured: T/C

Cc1ccc(NC(=S)NC(=O)/C=C/c2ccccc2)cc1Cl
inactive: endpoint: mean survival time, dose: 50.0 mg/kg/injection, schedule: Q04DX002 (ip), vehicle: saline with Tween-80 95 % of control and 97 % of control | endpoint: mean survival time, dose: 100.0 mg/kg/injection, schedule: Q04DX002 (ip), vehicle: saline with Tween-80 91 % of control and 97 % of control | endpoint: mean survival time, dose: 200.0 mg/kg/injection, schedule: Q04DX002 (ip), vehicle: saline with Tween-80 93 % of control and 94 % of control

Clc1nc(Cl)nc(-c2cccn2-c2ccccc2)n1
inactive: [1] 93 % of control | [2] 102 % of control | [3] 108 % of control | [4] 115 % of control

CCCCOC1CCC(O)C2CCCCC12 (stereo unspecified)
inactive: [2] 105 % of control | [3] 96 % of control | [4] 104 % of control

CCC(C)(S)C(NC(C)=O)C(=O)O (stereo unspecified)
inactive: [2] 98 % of control | [3] 101 % of control | [4] 104 % of control

CCOc1ccccc1NC(=O)NC1C(OC(C)=O)OC(COC(C)=O)C(OC(C)=O)C1OC(C)=O (stereo unspecified)
inactive: endpoint: mean survival time, dose: 12.5 mg/kg/injection, schedule: Q01DX009 (ip), vehicle: other 94 % of control | endpoint: mean survival time, dose: 25.0 mg/kg/injection, schedule: Q01DX009 (ip), vehicle: other 100 % of control | endpoint: mean survival time, dose: 50.0 mg/kg/injection, schedule: Q01DX009 (ip), vehicle: other 94 % of control | endpoint: mean survival time, dose: 100.0 mg/kg/injection, schedule: Q01DX009 (ip), vehicle: other 96 % of control | endpoint: mean survival time, dose: 200.0 mg/kg/injection, schedule: Q01DX009 (ip), vehicle: other 90 % of control

COC(=O)CCC([NH-])C(=O)O.COC(=O)CCC([NH-])C(=O)O.[NH-]C1CCCCC1[NH-].[Pt+4] (stereo unspecified)
inactive: endpoint: median survival time, dose: 6.25 mg/kg/injection, schedule: Q04DX003 (ip), vehicle: saline 100 % of control | endpoint: median survival time, dose: 12.5 mg/kg/injection, schedule: Q04DX003 (ip), vehicle: saline 96 % of control | endpoint: median survival time, dose: 25.0 mg/kg/injection, schedule: Q04DX003 (ip), vehicle: saline 97 % of control | endpoint: median survival time, dose: 50.0 mg/kg/injection, schedule: Q04DX003 (ip), vehicle: saline 108 % of control | endpoint: median survival time, dose: 100.0 mg/kg/injection, schedule: Q04DX003 (ip), vehicle: saline 110 % of control

COc1ccc(OC)c(/C=C/c2ccc3ccccc3n2)c1
inactive: [1] 110 % of control | [2] 104 % of control | [5] 98 % of control | [3] 104 % of control | [6] 106 % of control | [4] 108 % of control

CC(=O)Nc1ccc([N+](=O)[O-])c(C(F)(F)F)c1
inactive: [2] 98 % of control | [3] 103 % of control

CC(C)(C)C(=O)/C(O)=C\c1ccccc1
inactive: [7] 105 % of control | [8] 100 % of control | [9] 98 % of control

CC(C)N=C(N)c1ccc(NC(=O)c2ccc(C(=O)Nc3ccc(C(N)=NC(C)C)cc3)cc2)cc1
inactive: endpoint: mean survival time, dose: 6.25 mg/kg/injection, schedule: Q01DX Z (ip), vehicle: water 93 % of control

COc1ccc2c(c1)CCC1=C2CCC2(C)C(=O)NC(=O)N12 (stereo unspecified)
inactive: [2] 98 % of control | [3] 96 % of control | [4] 98 % of control

O=C(O)C(Br)C(Br)C(=O)O (stereo unspecified)
inactive: endpoint: mean survival time, dose: 50.0 mg/kg/injection, schedule: Q01DX001 (ip), vehicle: carboxymethylcellulose (CMC) 98 % of control | endpoint: mean survival time, dose: 100.0 mg/kg/injection, schedule: Q01DX001 (ip), vehicle: carboxymethylcellulose (CMC) 93 % of control | endpoint: mean survival time, dose: 200.0 mg/kg/injection, schedule: Q01DX001 (ip), vehicle: carboxymethylcellulose (CMC) 95 % of control

Oc1ccc(Br)cc1/C=N/c1nc(-c2ccccc2)cs1.Oc1ccc(Br)cc1/C=N/c1nc(-c2ccccc2)cs1.[Zn]
inactive: endpoint: mean survival time, dose: 25.0 mg/kg/injection, schedule: Q01DX001 (ip), vehicle: saline 100 % of control | endpoint: mean survival time, dose: 50.0 mg/kg/injection, schedule: Q01DX001 (ip), vehicle: saline 100 % of control | [7] 100 % of control

NC(=O)C#CC(N)=O
inactive: endpoint: mean survival time, dose: 0.37 mg/kg/injection, schedule: Q01DX009 (ip), vehicle: saline 101 % of control | endpoint: mean survival time, dose: 0.75 mg/kg/injection, schedule: Q01DX009 (ip), vehicle: saline 103 % of control | endpoint: mean survival time, dose: 1.5 mg/kg/injection, schedule: Q01DX009 (ip), vehicle: saline 109 % of control | endpoint: mean survival time, dose: 3.0 mg/kg/injection, schedule: Q01DX009 (ip), vehicle: saline 122 % of control | [1] 95 % of control | [2] 108 % of control | [5] 98 % of control | [3] 92 % of control | [6] 108 % of control | [4] 89 % of control

CCOC(=O)C(N)CSC(=O)NC (stereo unspecified)
inactive: endpoint: mean survival time, dose: 12.5 mg/kg/injection, schedule: Q01DX009 (ip), vehicle: saline 95 % of control | endpoint: mean survival time, dose: 25.0 mg/kg/injection, schedule: Q01DX009 (ip), vehicle: saline 103 % of control and 107 % of control | endpoint: mean survival time, dose: 50.0 mg/kg/injection, schedule: Q01DX009 (ip), vehicle: saline 116 % of control and 97 % of control | [10] 123 % of control and 105 % of control | [11] 116 % of control and 111 % of control | endpoint: mean survival time, dose: 800.0 mg/kg/injection, schedule: Q01DX009 (ip), vehicle: saline 94 % of control

O=C(CBr)c1ccc(I)cc1
inactive: endpoint: mean survival time, dose: 3.13 mg/kg/injection, schedule: Q04DX003 (ip), vehicle: saline 94 % of control | endpoint: mean survival time, dose: 6.25 mg/kg/injection, schedule: Q04DX003 (ip), vehicle: saline 98 % of control | endpoint: mean survival time, dose: 12.5 mg/kg/injection, schedule: Q04DX003 (ip), vehicle: saline 94 % of control | endpoint: mean survival time, dose: 25.0 mg/kg/injection, schedule: Q04DX003 (ip), vehicle: saline 98 % of control | endpoint: mean survival time, dose: 50.0 mg/kg/injection, schedule: Q04DX003 (ip), vehicle: saline 98 % of control | [12] 106 % of control

CC1(CC(C)(C)c2ccccc2)OCCO1
inactive: endpoint: mean survival time, dose: 25.0 mg/kg/injection, schedule: Q01DX009 (ip), vehicle: Klucel (hydroxypropylcellulose) (HPC) 100 % of control | endpoint: mean survival time, dose: 50.0 mg/kg/injection, schedule: Q01DX009 (ip), vehicle: Klucel (hydroxypropylcellulose) (HPC) 98 % of control | endpoint: mean survival time, dose: 100.0 mg/kg/injection, schedule: Q01DX009 (ip), vehicle: Klucel (hydroxypropylcellulose) (HPC) 100 % of control | endpoint: mean survival time, dose: 200.0 mg/kg/injection, schedule: Q01DX009 (ip), vehicle: Klucel (hydroxypropylcellulose) (HPC) 102 % of control | endpoint: mean survival time, dose: 400.0 mg/kg/injection, schedule: Q01DX009 (ip), vehicle: Klucel (hydroxypropylcellulose) (HPC) 100 % of control

C=CCCCCC/C=C/CCCCCC
inactive: [7] 96 % of control | [12] 108 % of control | [8] 98 % of control | [13] 103 % of control | [9] 104 % of control | [14] 106 % of control

c1ccc(-c2cc(-c3cc(-c4ccccc4)on3)no2)cc1
inactive: [15] 91 % of control | endpoint: mean survival time, dose: 100.0 mg/kg/injection, schedule: Q01DX001 (ip), vehicle: saline with Tween-80 101 % of control | [1] 94 % of control | endpoint: mean survival time, dose: 200.0 mg/kg/injection, schedule: Q01DX001 (ip), vehicle: saline with Tween-80 100 % of control | [5] 96 % of control

O=C(O)c1ccccc1C(=O)c1ccccc1
inactive: [10] 97 % of control | [12] 90 % of control | [11] 101 % of control | [13] 95 % of control | endpoint: mean survival time, dose: 400.0 mg/kg/injection, schedule: Q01DX009 (ip), vehicle: saline 101 % of control | [14] 103 % of control

CC(C)(CCCO)c1cccc(Cl)c1
inactive: [15] 104 % of control | [1] 101 % of control | [5] 104 % of control
